Patent publication US20160114000A1 (Merck Sharp & Dohme, published 2016)
*1 amine or outer side, *2 acyl side, *3 side chain or, on linkers, in order; H or OH if unused. Where a SMILES comes first, the peptide text is derived from it. Side-chain parts run from the residue outwards. [ ]: non-standard residue; d: D form. The star is where a group is joined. Phe(4-CH2NH2) = NCc1ccc(C[C@H](N)C(=O)O)cc1; γGlu = O=C(O)[C@H](CCC(=O)[*:2])N[*:1]; Palmitoyl = CCCCCCCCCCCCCCCC(=O)*

How the values were obtained:
human GCGR = biological target: T1, human GCGR (Homo sapiens, UniProt P47871); assay: cAMP protocol, cells expressing human GCGR; format: cell-based; conditions: for hGCGR/hGLP1R (hTone): ratio of EC50 at human GCGR to EC50 at human GLP1R; for EC50: cAMP production, 20% human serum in assay buffer
T1 construct: expressed in transfected cells; grown under Geneticin and Hygromycin selection
T1 sequence (P47871 26-477): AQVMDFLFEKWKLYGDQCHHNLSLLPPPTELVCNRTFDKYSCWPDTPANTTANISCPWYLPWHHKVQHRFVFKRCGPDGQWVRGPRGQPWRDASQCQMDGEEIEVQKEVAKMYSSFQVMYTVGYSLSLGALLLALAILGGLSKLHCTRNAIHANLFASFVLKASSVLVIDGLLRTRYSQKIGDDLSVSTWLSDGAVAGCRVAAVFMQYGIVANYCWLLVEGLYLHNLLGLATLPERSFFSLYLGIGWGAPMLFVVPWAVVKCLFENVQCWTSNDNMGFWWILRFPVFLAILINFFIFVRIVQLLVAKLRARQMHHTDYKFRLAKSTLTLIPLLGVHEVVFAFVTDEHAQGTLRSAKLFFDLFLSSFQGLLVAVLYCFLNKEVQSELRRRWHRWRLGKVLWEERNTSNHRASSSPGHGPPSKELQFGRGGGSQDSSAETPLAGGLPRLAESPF
Description: The cAMP protocol was as follows.
(§1) Peptides were dissolved in 100% DMSO and serially diluted to generate 11 point titrations. The peptide solutions were then transferred into 384-well assay plates (150 nL/well). Assay ready frozen cells expressing human GLP-1R or human GCGR were suspended in growth media consisting of DMEM/F12 medium (GIBCO), 10% FBS (GIBCO), lx P/S (GIBCO), 800 μg/mL Geneticin (GIBCO), and 300 μg/mL Hygromycin (Invitrogen). Cells were then diluted in assay buffer consisting of PBS (GIBCO), 7.5% BSA (Perkin Elmer), 100 μM RO 20-1724 (Sigma), and 20% human serum (MP Biomedical). The cell suspensions (15 μL) were then added to the assay plates containing the peptide solutions (30,000 cells/well for human GCGR; 20,000 cells/well for GLP1R). The cells were incubated for 1 hour at room temperature in the dark. Production of cAMP was determined using HitHunter™ cAMPXS kits (DiscoverX). ED buffer (20 μL) was then added to each well and the plates were incubated for 1 hour at room temperature in the dark. Subsequently, EA buffer (20 μL) was added to each well, and the plates were incubated for 1-18 hours at room temperature in the dark. Luminescence was measured using an EnVision Multilabel plate reader (Perkin Elmer). EC50 values were calculated using ADA data analyzer software.

[1] = test system: diet-induced obese (DIO) mice (strain C57Bl6/NTac); assay: Cumulative body weight change (grams) in DIO mice, Example 18; format: in vivo; conditions: day 9; for weight loss: 9 nmol/kg daily
Description: Mice were administered a vehicle control or a dose of a peptide daily for nine days. […] The peptide of SEQ ID NO: 9 was administered at doses of 9 and 25 nmol/kg. Cumulative body weight change (grams) was measured each day of the study except on day 3. Results are shown in FIG. 1 and are expressed as mean±SEM.

[2] = test system: DIO mice (strain C57Bl6/NTac); assay: Body weight change (%) relative to vehicle in DIO mice, second study, Example 19; format: in vivo; conditions: eight days
Description: In addition, the peptide of SEQ ID NO: 8 was administered at 15 nmol/kg, while the peptide of SEQ ID NOs: 10 and 11 were administered at 3 nmol/kg. Body weight was measured daily for eight days and body weight change is expressed as percent relative to vehicle (FIG. 2).

[3] = test system: DIO mice (strain C57Bl6/NTac); assay: Ambient glucose levels in DIO mice, Example 21; format: in vivo; conditions: for changes in ambient glucose: after 9 days of dosing
Description: In addition to cumulative body weight change, ambient glucose levels of the DIO mice (strain C57Bl6/NTac) were measured periodically throughout the study.

human GLP-1R = biological target: T2, human GLP-1R (Homo sapiens, UniProt P43220); assay: cAMP protocol, cells expressing human GLP-1R; format: cell-based; conditions: cAMP production, 20% human serum in assay buffer; read-out: GLPR1 EC50 (nM) human
T2 construct: expressed in transfected cells; grown under Geneticin and Hygromycin selection
T2 sequence (P43220 24-463): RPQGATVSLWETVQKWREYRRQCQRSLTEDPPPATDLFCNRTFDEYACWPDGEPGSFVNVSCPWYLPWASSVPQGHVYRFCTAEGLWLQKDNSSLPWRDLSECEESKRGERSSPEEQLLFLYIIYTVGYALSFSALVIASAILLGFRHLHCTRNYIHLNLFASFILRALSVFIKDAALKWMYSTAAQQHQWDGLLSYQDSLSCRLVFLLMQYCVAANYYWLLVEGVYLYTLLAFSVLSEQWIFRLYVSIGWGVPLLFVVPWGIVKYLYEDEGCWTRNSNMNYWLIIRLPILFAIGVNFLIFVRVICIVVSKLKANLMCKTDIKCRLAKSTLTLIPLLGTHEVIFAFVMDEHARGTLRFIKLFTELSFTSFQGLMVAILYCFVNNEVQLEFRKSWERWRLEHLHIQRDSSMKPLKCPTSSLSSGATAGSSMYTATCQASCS
Description: The cAMP protocol was as follows.
as §1

[4] = test system: DIO mice (strain C57Bl6/NTac); assay: Cumulative food intake in DIO mice, Example 20; format: in vivo; conditions: 3 nmol/kg, after 8 days of dosing, vs vehicle
Description: For the studies in Examples 18, 19, 20, and 21, diet induced obesity (DIO) mice (strain C57Bl6/NTac; 20 weeks on a high fat diet, about 47 g) were divided into groups of eight mice per group and the initial average body weight, food intake and basal glucose of each group were matched before peptide administration. Each group of mice was subcutaneously injected daily with a dose of Co-agonist Peptide or vehicle control for 7 to 10 days. The peptides tested in this study were Co-agonist Peptides 1, 2, 3, 4, 5, and 6 (SEQ ID NOs: 6, 7, 8, 9, 10, and 11, respectively) at the doses that varied from 3 nmol/kg to 25 nmol/kg. Body weight, food intake and basal glucose were measured periodically during treatment.

Compound | hGCGR/hGLP1R (hTone) (human GCGR) | EC50 (human GCGR) [nM] | EC50 (human GLP-1R) [nM] | weight loss [1] | weight loss, percent relative to vehicle ([2]; 9 nmol/kg daily) | decrease in ambient glucose compared to vehicle ([3]; 9 nmol/kg, day 7 of dosing) [mg/dL] | changes in ambient glucose ([3]; 9 nmol/kg) | body weight loss ([1]; 25 nmol/kg daily) [grams] | decrease in ambient glucose compared to vehicle ([3]; 25 nmol/kg, second day of dosing) [mg/dL] | weight loss, percent relative to vehicle ([2]; 15 nmol/kg daily) | decrease in ambient glucose compared to vehicle ([3]; 9 nmol/kg, day 9) [mg/dL] | weight loss, percent relative to vehicle ([2]; 3 nmol/kg daily) | food intake [4]
CCCCCCCCCCCCCCCC(=O)N[C@@H](CCC(=O)NCCCC[C@H](NC(=O)[C@H](CC(=O)O)NC(=O)[C@H](CO)NC(=O)[C@@H](NC(=O)[C@H](Cc1ccccc1)NC(=O)[C@@H](NC(=O)CNC(=O)[C@H](CCC(N)=O)NC(=O)[C@@H](CO)NC(=O)[C@@H](N)Cc1c[nH]cn1)[C@@H](C)O)[C@@H](C)O)C(=O)N[C@@H](CO)C(=O)N[C@@H](CCCCN)C(=O)N[C@@H](Cc1ccc(O)cc1)C(=O)N[C@@H](CC(C)C)C(=O)N[C@@H](CC(=O)O)C(=O)N[C@@H](C)C(=O)N[C@@H](CCCNC(=N)N)C(=O)N[C@@H](C)C(=O)N[C@@H](C)C(=O)N[C@@H](CCC(N)=O)C(=O)N[C@@H](CC(=O)O)C(=O)N[C@@H](Cc1ccccc1)C(=O)N[C@H](C(=O)N[C@@H](CCC(N)=O)C(=O)N[C@@H](Cc1c[nH]c2ccccc12)C(=O)N[C@@H](CC(C)C)C(=O)N[C@@H](CC(C)C)C(=O)N[C@@H](CC(=O)O)C(=O)N[C@H](C(N)=O)[C@@H](C)O)C(C)C)C(=O)O [SEQ ID NO: 6] | 0.88 |  |  | 10.5 grams | approximately 20% | -60 |  |  |  |  |  |  | 
CCCCCCCCCCCCCCCC(=O)N[C@@H](CCC(=O)NCCCC[C@H](NC(=O)[C@H](CC(=O)O)NC(=O)[C@H](CO)NC(=O)[C@@H](NC(=O)[C@H](Cc1ccccc1)NC(=O)[C@@H](NC(=O)CNC(=O)[C@H](CCC(N)=O)NC(=O)[C@@H](CO)NC(=O)[C@@H](N)Cc1c[nH]cn1)[C@@H](C)O)[C@@H](C)O)C(=O)N[C@@H](CO)C(=O)N[C@@H](CCCCN)C(=O)N[C@@H](Cc1ccc(O)cc1)C(=O)N[C@@H](CC(C)C)C(=O)N[C@@H](CC(=O)O)C(=O)N[C@H](C(=O)N[C@@H](CCCNC(=N)N)C(=O)N[C@@H](C)C(=O)N[C@@H](C)C(=O)N[C@@H](CCC(N)=O)C(=O)N[C@@H](CC(=O)O)C(=O)N[C@@H](Cc1ccccc1)C(=O)N[C@H](C(=O)N[C@@H](CCC(N)=O)C(=O)N[C@@H](Cc1c[nH]c2ccccc12)C(=O)N[C@@H](CC(C)C)C(=O)N[C@@H](CC(C)C)C(=O)N[C@@H](CC(=O)O)C(=O)N[C@H](C(N)=O)[C@@H](C)O)C(C)C)C(C)C)C(=O)O [SEQ ID NO: 7] (H-H[dS]QGTFTSDK([γGlu-Palmitoyl])SKYLDVRAAQDFVQWLLDT-NH2; N-terminus assumed) | 0.30 | 0.041 | 0.16 | ~3 grams | approximately 5% |  | did not exhibit significant changes |  |  |  |  |  | 
CCCCCCCCCCCCCCCC(=O)N[C@@H](CCC(=O)N[C@@H](CCC(=O)NCCCC[C@H](NC(=O)[C@H](CC(=O)O)NC(=O)[C@H](CO)NC(=O)[C@@H](NC(=O)[C@H](Cc1ccccc1)NC(=O)[C@@H](NC(=O)CNC(=O)[C@H](CCC(N)=O)NC(=O)[C@@H](CO)NC(=O)[C@@H](N)Cc1c[nH]cn1)[C@@H](C)O)[C@@H](C)O)C(=O)N[C@@H](CO)C(=O)N[C@@H](CCCCN)C(=O)N[C@@H](Cc1ccc(O)cc1)C(=O)N[C@@H](CC(C)C)C(=O)N[C@@H](CC(=O)O)C(=O)N[C@H](C(=O)N[C@@H](CCCNC(=N)N)C(=O)N[C@@H](C)C(=O)N[C@@H](C)C(=O)N[C@@H](CCC(N)=O)C(=O)N[C@@H](CC(=O)O)C(=O)N[C@@H](Cc1ccccc1)C(=O)N[C@H](C(=O)N[C@@H](CCC(N)=O)C(=O)N[C@@H](Cc1c[nH]c2ccccc12)C(=O)N[C@@H](CC(C)C)C(=O)N[C@@H](CC(C)C)C(=O)N[C@@H](CC(=O)O)C(=O)N[C@H](C(N)=O)[C@@H](C)O)C(C)C)C(C)C)C(=O)O)C(=O)O [SEQ ID NO: 8] | 0.60 |  |  | 8 grams | approximately 17% |  |  |  |  | approximately 25% | -72 |  | 
CCCCCCCCCCCCCCCC(=O)N[C@@H](CCC(=O)N[C@@H](CCC(=O)NCCCC[C@H](NC(=O)[C@H](CC(=O)O)NC(=O)[C@H](CO)NC(=O)[C@@H](NC(=O)[C@H](Cc1ccccc1)NC(=O)[C@@H](NC(=O)CNC(=O)[C@H](CCC(N)=O)NC(=O)[C@@H](CO)NC(=O)[C@@H](N)Cc1c[nH]cn1)[C@@H](C)O)[C@@H](C)O)C(=O)N[C@@H](CO)C(=O)N[C@@H](CCCCN)C(=O)N[C@@H](Cc1ccc(O)cc1)C(=O)N[C@@H](CC(C)C)C(=O)N[C@@H](CC(=O)O)C(=O)N[C@@H](CCC(=O)O)C(=O)N[C@@H](CCCNC(=N)N)C(=O)N[C@@H](C)C(=O)N[C@@H](C)C(=O)N[C@@H](CCC(N)=O)C(=O)N[C@@H](CC(=O)O)C(=O)N[C@@H](Cc1ccccc1)C(=O)N[C@H](C(=O)N[C@@H](CCC(N)=O)C(=O)N[C@@H](Cc1c[nH]c2ccccc12)C(=O)N[C@@H](CC(C)C)C(=O)N[C@@H](CC(C)C)C(=O)N[C@@H](CC(=O)O)C(=O)N[C@H](C(N)=O)[C@@H](C)O)C(C)C)C(=O)O)C(=O)O [SEQ ID NO: 11, reference compound] | 1.30 |  |  | approximately 13 grams |  |  |  |  |  |  |  | no weight loss efficacy | no change in food intake

The next lines start with results.

hGCGR/hGLP1R (hTone) (human GCGR) | EC50 (human GCGR) [nM] | EC50 (human GLP-1R) [nM] | Compound | weight loss [1] | weight loss, percent relative to vehicle ([2]; 9 nmol/kg daily) | decrease in ambient glucose compared to vehicle ([3]; 9 nmol/kg, day 7 of dosing) [mg/dL] | changes in ambient glucose ([3]; 9 nmol/kg) | body weight loss ([1]; 25 nmol/kg daily) [grams] | decrease in ambient glucose compared to vehicle ([3]; 25 nmol/kg, second day of dosing) [mg/dL] | weight loss, percent relative to vehicle ([2]; 15 nmol/kg daily) | decrease in ambient glucose compared to vehicle ([3]; 9 nmol/kg, day 9) [mg/dL] | weight loss, percent relative to vehicle ([2]; 3 nmol/kg daily) | food intake [4]
0.98 | 0.05 | 0.05 | CCCCCCCCCCCCCCCC(=O)N[C@@H](CCC(=O)N[C@@H](CCC(=O)NCc1ccc(C[C@H](NC(=O)[C@H](CC(=O)O)NC(=O)[C@H](CO)NC(=O)[C@@H](NC(=O)[C@H](Cc2ccccc2)NC(=O)[C@@H](NC(=O)CNC(=O)[C@H](CCC(N)=O)NC(=O)[C@@H](CO)NC(=O)[C@@H](N)Cc2c[nH]cn2)[C@@H](C)O)[C@@H](C)O)C(=O)N[C@@H](CO)C(=O)N[C@@H](CCCCN)C(=O)N[C@@H](Cc2ccc(O)cc2)C(=O)N[C@@H](CC(C)C)C(=O)N[C@@H](CC(=O)O)C(=O)N[C@@H](C)C(=O)N[C@@H](CCCNC(=N)N)C(=O)N[C@@H](C)C(=O)N[C@@H](C)C(=O)N[C@@H](CCC(N)=O)C(=O)N[C@@H](CC(=O)O)C(=O)N[C@@H](Cc2ccccc2)C(=O)N[C@H](C(=O)N[C@@H](CCC(N)=O)C(=O)N[C@@H](Cc2c[nH]c3ccccc23)C(=O)N[C@@H](CC(C)C)C(=O)N[C@@H](CC(C)C)C(=O)N[C@@H](CC(=O)O)C(=O)N[C@H](C(N)=O)[C@@H](C)O)C(C)C)cc1)C(=O)O)C(=O)O [SEQ ID NO: 17, His^1-D-Ser^2-Gln-Gly-Thr-Phe-Thr-Ser-Asp-pAF^10(γGlu-γGlu-C16)-Ser-Lys-Tyr-Leu-Asp^15-Ala^16-Arg-Ala-Ala-Gln-Asp-Phe^22-Val^23-Gln-Trp^25-Leu-Leu-Asp-Thr-CONH2] (H-H[dS]QGTFTSD[Phe(4-CH2NH2)]([γGlu-γGlu-Palmitoyl])SKYLDARAAQDFVQWLLDT-NH2) |  |  |  |  |  |  |  |  |  | 
8.98 | 0.89 | 0.1 | CCCCCCCCCCCCCCCC(=O)N[C@@H](CCC(=O)N[C@@H](CCC(=O)NCCCC[C@H](NC(=O)[C@H](CC(=O)O)NC(=O)[C@H](CO)NC(=O)[C@@H](NC(=O)[C@H](Cc1ccccc1)NC(=O)[C@@H](NC(=O)CNC(=O)[C@@H](NC(=O)C(C)(C)NC(=O)[C@@H](N)Cc1c[nH]cn1)C(C)C)[C@@H](C)O)[C@@H](C)O)C(=O)N[C@@H](CO)C(=O)N[C@@H](CCCCN)C(=O)N[C@@H](Cc1ccc(O)cc1)C(=O)N[C@@H](CC(C)C)C(=O)N[C@@H](CC(=O)O)C(=O)NC(C)(C)C(=O)N[C@@H](CCCNC(=N)N)C(=O)N[C@@H](C)C(=O)N[C@@H](C)C(=O)N[C@@H](CCC(N)=O)C(=O)N[C@@H](CC(=O)O)C(=O)N[C@@H](Cc1ccccc1)C(=O)N[C@H](C(=O)N[C@@H](CCC(N)=O)C(=O)N[C@@H](Cc1c[nH]c2ccccc12)C(=O)N[C@@H](CC(C)C)C(=O)N[C@@H](CCCC)C(=O)N[C@@H](CC(=O)O)C(=O)N[C@H](C(N)=O)[C@@H](C)O)C(C)C)C(=O)O)C(=O)O [SEQ ID NO: 9] | ~3 grams | approximately 5% |  | did not exhibit significant changes | 10.5 | -75 |  |  |  | 
1.10 | 0.02 | 0.02 | CCCCCCCCCCCCCCCC(=O)N[C@@H](CCC(=O)N[C@@H](CCC(=O)NCCCC[C@H](NC(=O)[C@H](CC(=O)O)NC(=O)[C@H](CO)NC(=O)[C@@H](NC(=O)[C@H](Cc1ccccc1)NC(=O)[C@@H](NC(=O)CNC(=O)[C@H](CCC(N)=O)NC(=O)[C@@H](CO)NC(=O)[C@@H](N)Cc1c[nH]cn1)[C@@H](C)O)[C@@H](C)O)C(=O)N[C@@H](CO)C(=O)N[C@@H](CCCCN)C(=O)N[C@@H](Cc1ccc(O)cc1)C(=O)N[C@@H](CC(C)C)C(=O)N[C@@H](CC(=O)O)C(=O)N[C@@H](CCC(=O)O)C(=O)N[C@@H](CCCNC(=N)N)C(=O)N[C@@H](C)C(=O)N[C@@H](C)C(=O)N[C@@H](CCC(N)=O)C(=O)N[C@@H](CC(=O)O)C(=O)N[C@@H](Cc1ccccc1)C(=O)N[C@H](C(=O)N[C@@H](CCC(N)=O)C(=O)N[C@@H](Cc1c[nH]c2ccccc12)C(=O)N[C@@H](CC(C)C)C(=O)N[C@@H](CCS(C)(=O)=O)C(=O)N[C@@H](CC(=O)O)C(=O)N[C@H](C(N)=O)[C@@H](C)O)C(C)C)C(=O)O)C(=O)O [SEQ ID NO: 15] |  |  |  |  |  |  |  |  |  | 
